We go through six compounds from article PMC10458307, “New Scaffolds of Proteasome Inhibitors: Boosting Anticancer Potential by Exploiting the Synergy of In Silico and In Vitro Methodologies” (Pharmaceuticals, 2023).

For orientation: viability means a per cent measure of how many cells are alive, often set against a control. For orientation: IC50 means the concentration needed to halve the response being measured. The inhibition is how much of the control response was suppressed.

A short description of series [1]: Cell viability, MTT assay, HT-29. Format: cell-based, human. Particulars: human, HT-29 colorectal carcinoma cells, read-out: percentage of cell viability, MTT, HT-29; for viability at 72 h, 10 µM: at 10 µM; for viability at 72 h, 100 µM: at 100 µM. The protocol: Whenever possible, additional concentrations were tested and IC50 values were determined.
Human leukemia Jurkat E6.1 T-cell line and K562-cell line were originally obtained from ATCC Collections (Manassas, VA, USA); human HT-29 and HCT116 colorectal carcinoma-cell lines were obtained from ECACC (Porton Down, Porton, UK). Cells were passaged for less than 6 months after and routinely tested for mycoplasma contamination using Mycoalert detection kit (Lonza, Basel, Switzerland). Jurkat, K562, and HT-29 cells were maintained in Roswell Park Memorial Institute (RPMI) 1640 with GlutaMAX™, supplemented with 1% antibiotic mixture (100 µg/mL streptomycin and 100 U/mL penicillin) and 10% heat-inactivated foetal bovine serum (FBS) (all from Gibco, Thermo Fisher Scientific, Paisley, UK). HCT116 cells were maintained in Dulbecco’s Modified Eagle Medium (DMEM) with GlutaMAX™, supplemented with 1% antibiotic mixture (100 µg/mL streptomycin and 100 U/mL penicillin) and 10% heat-inactivated FBS (all from Gibco, Thermo Fisher Scientific, Paisley, UK). Incubation was performed at 37 °C in a 5% CO2 atmosphere. Cells were routinely passaged every 2 or 3 days at 70–90% confluence; TrypLE Express (Gibco, Thermo Fisher Scientific, Paisley, UK) was used as dissociation agent for adherent cells. Trypan blue (Gibco, Thermo Fisher Scientific, Paisley, UK) was used to assess cell viability using the dye exclusion test.
To assess cell viability, the MTT assay was performed. Jurkat/K562/HT-29/HCT116 cell lines were seeded in triplicate (10,000 cells/well) in 96-well plates with 50 µL of complete medium and incubated at 37 °C, 5% CO2 for 24 h to allow the cells to adhere to the plate (in the case of adherent cells). […] Untreated cells seeded in triplicate were used as control. The blank was performed in triplicate with 100 µL of culture medium. The cells were incubated with the compounds, in triplicate, in 100 µL of total volume, at 37 °C, 5% CO2 for 72 h. […] In suspension cells (Jurkat), 25 µL of MTT were directly added to each well and, after 3 h 30 m of incubation, 100 µL of DMSO were added to solubilize the formazan crystals; in adherent cells (HT-29 and HCT116), the culture medium was removed, 25 µL of MTT were added to each well and, after 3 h 30 m of incubation, upon MTT removal, 100 µL of DMSO were added to solubilize the formazan crystals. After 15 min, the samples absorbance was measured at 570 nm and the percentage of cell viability was determined.
On the technique in general: Formazan colour is commonly taken as a measure of viable cells.

The target in series [2] is T1, 20S proteasome in HT-29 cell lysates, C-L activity (Homo sapiens, UniProt P28072).
T1 sequence (P28072 35-239 limits assumed): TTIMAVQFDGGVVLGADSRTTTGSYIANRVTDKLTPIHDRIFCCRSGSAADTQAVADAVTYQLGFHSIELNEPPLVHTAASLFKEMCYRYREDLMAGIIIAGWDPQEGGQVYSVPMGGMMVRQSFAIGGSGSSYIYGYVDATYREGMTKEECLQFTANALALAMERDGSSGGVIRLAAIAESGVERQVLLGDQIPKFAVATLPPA
T1 sequence (Q99436 44-277 partner): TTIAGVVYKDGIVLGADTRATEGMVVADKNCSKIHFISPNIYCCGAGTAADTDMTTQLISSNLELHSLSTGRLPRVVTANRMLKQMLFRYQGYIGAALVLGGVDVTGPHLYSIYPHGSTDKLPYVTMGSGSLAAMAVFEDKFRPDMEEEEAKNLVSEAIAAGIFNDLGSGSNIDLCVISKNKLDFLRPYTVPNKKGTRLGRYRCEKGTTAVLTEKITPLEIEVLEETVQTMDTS
Put plainly: Proteasome inhibition assay in cell lysates, HT-29, C-L. Particulars: for inhibition at 10 µM: read-out: percentage of proteasome inhibition, C-L, cell lysates HT-29, at 10 µM; for inhibition at 100 µM: read-out: percentage of proteasome inhibition, C-L, cell lysates HT-29, at 100 µM.
Procedure: (§1) Cells were obtained from several cultured cell lines: Jurkat, K562, HT-29, and HCT116. Pellets with 20 × 10^6 cells were prepared and washed with cold sterile phosphate buffered saline (PBS), 1×, pH 7.4 (Gibco, Thermo Fisher Scientific, Paisley, UK). […] Cells were resuspended in buffer containing 50 mM TRIS-HCl pH 7.4 (Nzytech, Lisboa, Portugal), 5 mM MgCl2 (≥98% purity, Merck, Hamburg, Germany), 1 mM DTT (Merck, Hamburg, Germany), 2 mM ATP (≥98% purity, Enzo Life Sciences Inc., Farmingdale, NY, USA), and 250 mM saccharose (Merck, Hamburg, Germany). Glass beads (Merck, Hamburg, Germany) equivalent to the volume of the cell suspension were added, and the mixture was vortexed for 2 min at 4 °C. Beads and cell debris were removed using 5 min centrifugation at 1000× g and 4 °C, followed by 20 min of centrifugation at 10,000× g at 4 °C. Cell lysates containing proteasomes were resuspended in “activity buffer” [50 mM TRIS-HCl (pH 7.4), 5 mM MgCl2, 1 mM DTT, 2 mM ATP (≥98% purity, Enzo Life Sciences Inc., Farmingdale, NY, USA), and 500 µM EDTA (≥98% purity, Merck, Hamburg, Germany)]. Protein concentration was determined using the Pierce™ BCA protocol (Thermo Fisher Scientific, Rockford, IL, USA). […] DMSO was added in an equal volume as used for the untreated compounds as a way to assess/control its influence in the assay. Untreated cells were used as control. In each well of a 96-well plate, 25 µL of lysate were seeded in duplicate with 25 µL of the compound to test; in the control, 25 µL of activity buffer were added to the 25 µL of lysate. A blank (50 µL of activity buffer) was added to the wells in quadruplicate. Cell lysates, pre-treated or not with different concentrations of the test compounds, were incubated for 30 min at 37 °C. […] Stock solutions (10 mM) of each substrate were prepared in DMSO, diluted in activity buffer, and 50 µL were added to all wells (final concentration of each substrate = 100 µM), followed by an incubation at 37 °C for 60 min. Samples fluorescence was measured at an excitation wavelength of 360 nm and emission of 465 nm; the fluorescence measures were performed using the GloMax-Multi + Detection System (Promega Corp., Madison, WI, USA). Activity was evaluated in fluorescence units, after being converted to percentage of proteasome inhibition and, whenever possible, expressed as IC50 by plotting the inhibition data of each compound at different concentrations against the log of the concentration of the inhibitor, using the GraphPad Prism software version 7. At least eight different concentrations of the test compounds were used.

In series [3] the target is T2, 20S proteasome in HT-29 cell lysates, CT-L activity (Homo sapiens, UniProt P28074).
T2 sequence (P28074 60-263): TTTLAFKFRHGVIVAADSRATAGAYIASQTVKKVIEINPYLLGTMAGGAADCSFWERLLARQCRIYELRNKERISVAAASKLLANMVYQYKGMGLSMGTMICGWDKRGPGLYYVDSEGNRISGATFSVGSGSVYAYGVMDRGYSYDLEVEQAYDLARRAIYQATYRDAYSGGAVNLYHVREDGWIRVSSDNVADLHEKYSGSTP
T2 sequence (P20618 29-241 partner): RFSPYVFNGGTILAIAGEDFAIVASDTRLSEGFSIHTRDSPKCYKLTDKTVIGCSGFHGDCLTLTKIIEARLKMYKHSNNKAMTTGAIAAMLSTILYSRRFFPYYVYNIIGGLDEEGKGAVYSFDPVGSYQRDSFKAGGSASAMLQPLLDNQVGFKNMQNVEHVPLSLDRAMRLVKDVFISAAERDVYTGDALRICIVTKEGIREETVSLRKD
The series can be described thus: Proteasome inhibition assay in cell lysates, HT-29, CT-L. Particulars: for inhibition at 10 µM: read-out: percentage of proteasome inhibition, CT-L, cell lysates HT-29, at 10 µM; for inhibition at 100 µM: read-out: percentage of proteasome inhibition, CT-L, cell lysates HT-29, at 100 µM.
Procedure: as §1

In series [4] the target is T3, 20S proteasome in HCT116 cell lysates, C-L activity (Homo sapiens, UniProt P28072).
T3 sequence (P28072 35-239 limits assumed): T1 sequence (P28072 35-239 limits assumed)
T3 sequence (Q99436 44-277 partner): T1 sequence (Q99436 44-277 partner)
Put plainly: Proteasome inhibition assay in cell lysates, HCT116, C-L. Particulars: for percentage of proteasome inhibition, C-L, cell lysates HCT116: at 100 µM; for percentage of proteasome inhibition, C-L, cell lysates HCT116 / inhibition at 100 µM: Table 2 legend: bortezomib 10 µM, NI = No inhibition; for inhibition at 100 µM: read-out: percentage of proteasome inhibition, C-L, cell lysates HCT116, at 100 µM; for inhibition at 10 µM: read-out: percentage of proteasome inhibition, C-L, cell lysates HCT-116, at 10 µM.
Procedure: as §1

The mark [5] stands for this setting: at 100 µM, Table 2 legend: bortezomib 10 µM.
Setting [6] is: Table 2 legend: bortezomib 10 µM.

Where “and” joins values, the source holds several entries; their conditions need not be identical. Equal values may be shown once.

In the case of `Cc1ccc2ccccc2c1CSc1ncnc2c1ncn2C1OC(CO)C(O)C1O` (stereo not drawn) [Compound 1], the viability at 72 h, 10 µM in series [1] was determined as 96.7%. In addition, in series [1], the viability at 72 h, 100 µM came out at 23.3%. Also, the values for the IC50 in series [2], in series [3] and in series [4] were 79.4 µM, 90.8 µM and 75.6 µM, respectively. In addition, the “percentage of proteasome inhibition, C-L, cell lysates HT-29” value in series [2] (setting [5]) came out at 76%. For the same compound, the inhibition at 10 µM in series [2], in series [3] and in series [4] was 0% each time. Besides, the values for the inhibition at 100 µM in series [2] (setting [6]), in series [3] (setting [6]) and in series [4] were 76%, 62.1% and 71.2%, respectively. Further, the “percentage of proteasome inhibition, CT-L, cell lysates HT-29” value in series [3] (setting [5]) is given as 62%. Further, in series [4], the “percentage of proteasome inhibition, C-L, cell lysates HCT116” value was 71%.
Regarding `O=C1c2ccccc2C(=O)c2c(Nc3ccc(S(=O)(=O)N(CCO)CCO)cc3)ccc(O)c21` [Compound 2], in series [1], the viability at 72 h, 10 µM was 79.9% and the viability at 72 h, 100 µM came to 65.4%. For the same compound, in series [2], the IC50 amounted to 62.1 µM and the inhibition at 10 µM worked out at 6.78%. In addition, the “percentage of proteasome inhibition, C-L, cell lysates HT-29” value in series [2] (setting [5]) is on record as 69%. In addition, the inhibition at 100 µM in series [2] (setting [6]) worked out at 69.2%. In series [3], half-maximal inhibition (IC50) required 73.8 µM and the inhibition at 10 µM was 2.11%. Also, the “percentage of proteasome inhibition, CT-L, cell lysates HT-29” value in series [3] (setting [5]) came out at 62%. The inhibition at 100 µM in series [3] (setting [6]) was 62.2%. In addition, in series [4], the midpoint of inhibition, the IC50, lay at 43.5 µM; the “percentage of proteasome inhibition, C-L, cell lysates HCT116” value is reported as 74%; the inhibition at 100 µM amounted to 74.1%; the inhibition at 10 µM came out at 11.1%.
In the case of `CC(C)c1nc(CN(C)C(=O)N[C@@H](CCN2CCOCC2)C(=O)N[C@H](CC[C@H](Cc2ccccc2)NC(=O)OCc2cncs2)Cc2ccccc2)cs1` [Compound 5, cobicistat, reference compound], in series [1], the viability at 72 h, 10 µM was determined as 98.3% and the viability at 72 h, 100 µM worked out at 25.4%. In series [2] (setting [5]), the “percentage of proteasome inhibition, C-L, cell lysates HT-29” value was determined as 29%. For the same compound, the inhibition at 10 µM in series [2] was determined as 0%. Further, in series [2] (setting [6]), the inhibition at 100 µM came out at 29.3%. In series [3], the IC50 is 84.3 µM and the inhibition at 10 µM worked out at 0%. Besides, in series [3] (setting [5]), the “percentage of proteasome inhibition, CT-L, cell lysates HT-29” value came to 81%. Further, the inhibition at 100 µM in series [3] (setting [6]) came out at 81.2%. In series [4], the “percentage of proteasome inhibition, C-L, cell lysates HCT116” value is reported as 28%; the inhibition at 100 µM came to 28.1%; the inhibition at 10 µM was 0%.
As to `Cc1ccc(/C(=N/NS(=O)(=O)c2ccc([N+](=O)[O-])cc2)Sc2cc(Cl)c(C)cc2S(N)(=O)=O)cc1` [Compound 3], the viability at 72 h, 10 µM in series [1] amounted to 100%. The viability at 72 h, 100 µM in series [1] was 100%. The “percentage of proteasome inhibition, C-L, cell lysates HT-29” value in series [2] (setting [5]) is given as 19%. In addition, the inhibition at 10 µM in series [2], in series [3] and in series [4] was 0% each time. For the same compound, the values for the inhibition at 100 µM in series [2] (setting [6]), in series [3] (setting [6]) and in series [4] were 18.6%, 31.4% and 0%, respectively. The “percentage of proteasome inhibition, CT-L, cell lysates HT-29” value in series [3] (setting [5]) is reported as 31%.
In the case of `C#CCCN1CCN(c2ccc(-n3c(=O)ccc4cnc5ccc(-c6ccc(N)nc6)cc5c43)cc2C(F)(F)F)CC1` [Compound 4, 9-(6-Aminopyridin-3-yl)-1-(4-(4-(but-3-yn-1-yl)piperazin-1-yl)-3-(trifluoromethyl)phenyl)benzo[h][1,6]naphthyridin-2(1H)-one], the viability at 72 h, 10 µM in series [1] was 94.1%. Also, the viability at 72 h, 100 µM in series [1] is 34.3%. Further, the values for the IC50 in series [2], in series [3] and in series [4] were 35.2 µM, 31.3 µM and 28.9 µM, respectively. Moreover, the “percentage of proteasome inhibition, C-L, cell lysates HT-29” value in series [2] (setting [5]) is recorded as 82%. For the same compound, the inhibition at 10 µM in series [2] was found to be 0%; in series [3], 10.1%; in series [4] it was 69.2%. Further, the inhibition at 100 µM in series [2] (setting [6]) came to 82.1%; in series [3] (setting [6]), 97.9%; in series [4], 90.1%. In addition, the “percentage of proteasome inhibition, CT-L, cell lysates HT-29” value in series [3] (setting [5]) was 98%. For the same compound, the “percentage of proteasome inhibition, C-L, cell lysates HCT116” value in series [4] worked out at 90%.
With `CC(C)C[C@H](NC(=O)[C@H](Cc1ccccc1)NC(=O)c1cnccn1)B(O)O` [Bortezomib, bortezomib, reference compound], the viability at 72 h, 10 µM in series [1] worked out at 0%. Besides, the viability at 72 h, 100 µM in series [1] came out at 0%. Further, the “percentage of proteasome inhibition, C-L, cell lysates HT-29” value in series [2] (at 10 µM) was 92.93%; in series [2] (setting [5]) it was 99.05% and 99%. The “percentage of proteasome inhibition, CT-L, cell lysates HT-29” value is 97.99% in series [3] (at 10 µM); 99.37% and 99% in series [3] (setting [5]). Also, in series [4] (at 10 µM), the “percentage of proteasome inhibition, C-L, cell lysates HCT-116” value was 94.21%. Also, the “percentage of proteasome inhibition, C-L, cell lysates HCT116” value in series [4] turned out to be 99%.
